Experimental findings from patent publication US10696685B2, “Polyketides, methods of use and preparation” (Universiteit Leiden, priority 2015, dated 2020) are described below.

Structures are written as SMILES. “Also recorded” adds a separate entry of the source.

One test relates to Bacillus subtilis 168. Nature of the test: Disk diffusion antimicrobial activity assay, Bacillus subtilis 168. The settings on record: paper disk, 25 μL of 2 μg/μL in chloroform (lugdunomycin: 10 μL of 1 μg/μL in methanol), 37° C., 18 h, FIG. 6 A. It counts as cell-based. An excerpt: (§1) Streptomyces sp. QL37 was isolated from soil in the Qinling mountains (P. R. China) soil as described previously (Zhu et al, 2014b). The previously undescribed strain was deposited to the collection of the Centraal Bureau voor Schimmelcultures (CBS) in Utrecht, The Netherlands. Streptomyces sp. QL37 was cultivated on Minimal Medium agar plates (MM) (Kieser et al., 2000) with 0.5% glycerol and 1% mannitol (w/v) as the carbon sources, on R5 agar supplemented with 0.8% peptone and 1% mannitol (w/v), or to prepare spore suspensions on SFM agar plates (Soy flour man nitol; (Kieser et al., 2000)). Square agar plates (12 cm×12 cm) were inoculated with 1×10^7 spores from a fresh spore suspension. As indicator strains for the antibacterial assays we used B. subtilis 168 and E. coli JM109 (Sambrook et al., 1989).
(§2) Antimicrobial activity was determined using a disk diffusion assay. For this, compounds were dissolved in chloroform to a concentration of (2 μg/μL) and of this solution, 25 μL was applied on a paper disk (GE Healthcare Bio-Sciences, Pittsburgh), except for lugdunomycin, for which 10 μL of a 1 μg/μL solution in methanol was used. […] After incubation at 37° C. for 18 h, growth inhibition zones (in mm) were recorded as antimicrobial activity.

Another test relates to Escherichia coli JM109. Nature of the test: Disk diffusion antimicrobial activity assay, Escherichia coli JM109. It counts as cell-based. As to conditions: paper disk, 25 μL of 2 μg/μL in chloroform (lugdunomycin: 10 μL of 1 μg/μL in methanol); 37° C., 18 h; FIG. 6 B, D.
Text: as §1, §2

As for `COc1cccc2c1[C@@H](O)[C@]13C[C@@H](O)C[C@]1(C(=O)NC3=O)[C@]21Oc2cc(C)cc3ccc(O)c1c23` [Lugdunomycin (1), lugdunomycin], the “antimicrobial activity (growth inhibition) against Gram-positive Bacillus subtilis” value with Bacillus subtilis 168 is recorded as “showed inhibition efficacy; also recorded: showed antimicrobial activity”. Besides, the “antimicrobial activity (growth inhibition) against Gram-negative Escherichia coli JM109” value in the test on Escherichia coli JM109 is recorded as “not against”.
